{
  "source": "patent US4085224A",
  "about": "“Method of increasing feed utilization” (Eli Lilly and Company, priority 1976, dated 1978)",
  "key": {"[1]": {"test_system": "vaccinia virus", "type": "cell-based", "details": "in vitro plaque suppression"}, "[2]": {"test_system": "Newcastle Disease virus", "type": "cell-based", "details": "tissue-culture"}, "[3]": {"test_system": "type III poliovirus", "type": "cell-based", "details": "in vitro plaque suppression"}, "[4]": {"test_system": "Transmissible Gastro-enteritis virus", "type": "cell-based"}, "[5]": {"test_system": "Emeria brunetti", "test": "anticoccidial activity in chicks (Table IX)", "type": "in vivo", "details": "E. brunetti, 0.005 percent in feed", "source_text": "(§1) ^1 Four replicates, 5 broiler cockerels each"}, "[6]": {"test_system": "Eimeria maxima", "test": "anticoccidial activity in chicks (Table IX)", "type": "in vivo", "details": "E. maxima, 0.005 percent in feed", "source_text": "as §1"}, "[7]": {"test_system": "Eimeria acervulina", "test": "anticoccidial activity in chicks (Table IX)", "type": "in vivo", "details": "E. acervulina; for Average Lesion Score: infected controls 1.60; for Oocysts Passed, Total/Bird: infected controls 36.32; for Percent Weight Gain: infected controls 63", "source_text": "as §1"}, "[8]": {"test": "feed-utilization efficiency in sheep", "type": "in vivo", "details": "56 days; for Feed Intake: control 3.56; for Feed/Gain: control 8.38; for Average Daily Gain: control .42"}, "[9]": {"test_system": "Eimeria tenella", "test": "anticoccidial activity in chicks (Table VIII)", "type": "in vivo", "details": "for Percent Weight Gain: normal controls 100"}, "[10]": {"test_system": "Semliki Forest virus", "test": "in vitro plaque suppression test", "type": "cell-based"}, "[11]": {"test_system": "Staphylococcus aureus (H-Heatley) NRRL B-314", "test": "turbidometric assay on semiautomated system (Autoturb), relative gram-positive activity", "type": "cell-based", "details": "relative to A-28086 factor A (standard); nutrient broth pH 7, four hours at 37° C.", "method": "The C2 -C6 -acyl ester derivatives of A-28086 factor A also have antibacterial and antifungal activity. In one aspect, these derivatives have increased gram-positive activity. The relative gram-positive activities of certain of these derivatives were compared with the activity of factor A. The compounds were tested by turbidometric assay on a semiautomated system (Autoturb® microbiological assay system, Elanco) described by N. R. Kuzel and F. W. Kavanaugh in J. Pharmaceut. Sci. 60 (5), 764 and 767 (1971). In testing the A-28086 antibiotics, the following test parameters were used: Staphylococcus aureus (H-Heatley) NRRL B-314 in a nutrient broth medium (pH 7), incubated for four hours at 37° C. Test samples and the standard were dissolved in methanol-water (10:90). The standard, A-28086 factor A, was presented to the Autoturb® carrousel at concentrations of 2, 3, 4, and 5 mcg/ml. Test compounds were diluted to contain approximately 3 or 4 mcg of activity per ml, as presented to the carrousel. The relative activities of test compounds, as compared to that of the standard, are given below: […]"}, "[12]": {"test": "solubility", "type": "physicochemical"}, "[13]": {"test_system": "herpes virus", "test": "in vitro plaque suppression test", "type": "cell-based"}, "[14]": {"test_system": "Infectious Bovine Rhinotracheitis virus", "type": "cell-based"}, "[15]": {"test_system": "ruminal propionic acid", "test": "ruminal propionic acid concentration in fistulated steers", "type": "in vivo", "details": "mean of five analyses in 14-day treatment", "method": "The test reported in Table XII was conducted with mature fistulated steers weighing about 1,000 lbs. each. Two steers were fed a normal diet, and four steers in each treatment group were fed an identical diet to which A-28086 factor A had been added. To each aliquot (100 ml) of rumen fluid taken, 10 percent metaphosphoric acid (100 ml) was added. The samples were allowed to settle, and the supernatants were analyzed by gas chromatographic methods to determine propionic acid concentrations.\nThe results in Table XII are the mean percent increases in ruminal propionic acid concentration, averaged over five analyses in a 14-day treatment period. Controls had approximately 20 molar percent propionic acid."}, "[16]": {"details": "first group, 0.01 percent in feed"}, "[17]": {"details": "first group, 0.02 percent in feed"}, "[18]": {"details": "first group, 0.04 percent in feed"}, "[19]": {"details": "second group, 0.0025 percent in feed"}, "[20]": {"details": "second group, 0.005 percent in feed"}, "[21]": {"details": "second group, 0.01 percent in feed"}, "[22]": {"details": "second group, 0.02 percent in feed"}},
  "data": [
    {"smiles": "CCC(C(=O)O)C1OC(C(C)C(O)C(C)C(=O)C(CC)C2OC3(C=CC(O)C4(CCC(C)(C5CCC(O)(CC)C(C)O5)O4)O3)C(C)CC2C)C(C)CC1C", "note": "(stereo not drawn) [A-28086 factor A]", "values": [
      {"measurement": "antiviral activity", "setting": "[1]", "value": "active"},
      {"measurement": "antiviral activity", "setting": "[2]", "value": "active"},
      {"measurement": "antiviral activity", "setting": "[3]", "value": "active"},
      {"measurement": "antiviral activity", "setting": "[4]", "value": "active"},
      {"measurement": "Oocysts Passed, Percent Reduction", "setting": "[5]", "value": 58, "unit": "%"},
      {"measurement": "Percent Mortality", "setting": "[5]", "value": 0, "unit": "%"},
      {"measurement": "Average Lesion Score", "setting": "[5]; infected controls 1.7", "value": 1.2},
      {"measurement": "Oocysts Passed, Total/Bird", "setting": "[5]; infected controls 5.55", "value": "2.31 1 × 10^6"},
      {"measurement": "Percent Weight Gain", "setting": "[5]; infected controls 62", "value": 88, "unit": "%"},
      {"measurement": "Oocysts Passed, Percent Reduction", "setting": "[6]", "value": 40, "unit": "%"},
      {"measurement": "Percent Mortality", "setting": "[6]", "value": 0, "unit": "%"},
      {"measurement": "Percent Reduction in Lesion Score", "setting": "[6]", "value": 85, "unit": "%"},
      {"measurement": "Average Lesion Score", "setting": "[6]; infected controls 1.3", "value": 0.2},
      {"measurement": "Oocysts Passed, Total/Bird", "setting": "[6]; infected controls 3.24", "value": "1.95 1 × 10^6"},
      {"measurement": "Percent Weight Gain", "setting": "[6]; infected controls 65", "value": 85, "unit": "%"},
      {"measurement": "Oocysts Passed, Percent Reduction", "setting": "[7]; 0.0025 percent in feed", "value": 86, "unit": "%"},
      {"measurement": "Percent Mortality", "setting": "[7]; 0.0025 percent in feed", "value": 0, "unit": "%"},
      {"measurement": "Average Lesion Score", "setting": "[7]; 0.0025 percent in feed", "value": 1.25},
      {"measurement": "Oocysts Passed, Total/Bird", "setting": "[7]; 0.0025 percent in feed", "value": "4.91 1 × 10^6"},
      {"measurement": "Percent Weight Gain", "setting": "[7]; 0.0025 percent in feed", "value": 82, "unit": "%"},
      {"measurement": "Oocysts Passed, Percent Reduction", "setting": "[7]; 0.005 percent in feed", "value": 83, "unit": "%"},
      {"measurement": "Percent Mortality", "setting": "[7]; 0.005 percent in feed", "value": 0, "unit": "%"},
      {"measurement": "Percent Reduction in Lesion Score", "setting": "[7]; 0.005 percent in feed", "value": 53, "unit": "%"},
      {"measurement": "Average Lesion Score", "setting": "[7]; 0.005 percent in feed", "value": 0.75},
      {"measurement": "Oocysts Passed, Total/Bird", "setting": "[7]; 0.005 percent in feed", "value": "6.15 1 × 10^6"},
      {"measurement": "Percent Weight Gain", "setting": "[7]; 0.005 percent in feed", "value": 87, "unit": "%"},
      {"measurement": "Feed Intake", "setting": "[8]; 9 g per ton of feed", "value": 3.29, "unit": "lbs./day"},
      {"measurement": "Feed/Gain", "setting": "[8]; 9 g per ton of feed", "value": 7.40},
      {"measurement": "Average Daily Gain", "setting": "[8]; 9 g per ton of feed", "value": ".44 lbs./day"},
      {"measurement": "Feed Intake", "setting": "[8]; 18 g per ton of feed", "value": 3.15, "unit": "lbs./day"},
      {"measurement": "Feed/Gain", "setting": "[8]; 18 g per ton of feed", "value": 8.31},
      {"measurement": "Average Daily Gain", "setting": "[8]; 18 g per ton of feed", "value": ".38 lbs./day"},
      {"measurement": "feed-utilization efficiency (in words)", "setting": "[8]; sheep", "value": "increases feed-utilization efficiency"},
      {"measurement": "Percent Reduction in Lesion Score", "setting": "[9]; [16]", "value": 95, "unit": "%"},
      {"measurement": "Percent Mortality", "setting": "[9]; first group, 0.01 percent in feed, 10 chickens", "value": 0, "unit": "%"},
      {"measurement": "Average Lesion Score", "setting": "[9]; first group, 0.01 percent in feed, infected controls 3.65", "value": 0.2},
      {"measurement": "Percent Weight Gain", "setting": "[9]; [16]", "value": 94, "unit": "%"},
      {"measurement": "Percent Reduction in Lesion Score", "setting": "[9]; [17]", "value": 95, "unit": "%"},
      {"measurement": "Percent Mortality", "setting": "[9]; first group, 0.02 percent in feed, 10 chickens", "value": 0, "unit": "%"},
      {"measurement": "Average Lesion Score", "setting": "[9]; first group, 0.02 percent in feed, infected controls 3.65", "value": 0.2},
      {"measurement": "Percent Weight Gain", "setting": "[9]; [17]", "value": 82, "unit": "%"},
      {"measurement": "Percent Reduction in Lesion Score", "setting": "[9]; [18]", "value": 100, "unit": "%"},
      {"measurement": "Percent Mortality", "setting": "[9]; first group, 0.04 percent in feed, 10 chickens", "value": 0, "unit": "%"},
      {"measurement": "Average Lesion Score", "setting": "[9]; first group, 0.04 percent in feed, infected controls 3.65", "value": 0},
      {"measurement": "Percent Weight Gain", "setting": "[9]; [18]", "value": 50, "unit": "%"},
      {"measurement": "Percent Reduction in Lesion Score", "setting": "[9]; [19]", "value": 0, "unit": "%"},
      {"measurement": "Percent Mortality", "setting": "[9]; second group, 0.0025 percent in feed, 20 chickens", "value": 10, "unit": "%"},
      {"measurement": "Average Lesion Score", "setting": "[9]; second group, 0.0025 percent in feed, infected controls 3.85", "value": 3.85},
      {"measurement": "Percent Weight Gain", "setting": "[9]; [19]", "value": 87, "unit": "%"},
      {"measurement": "Percent Reduction in Lesion Score", "setting": "[9]; [20]", "value": 27, "unit": "%"},
      {"measurement": "Percent Mortality", "setting": "[9]; second group, 0.005 percent in feed, 20 chickens", "value": 0, "unit": "%"},
      {"measurement": "Average Lesion Score", "setting": "[9]; second group, 0.005 percent in feed, infected controls 3.85", "value": 2.8},
      {"measurement": "Percent Weight Gain", "setting": "[9]; [20]", "value": 91, "unit": "%"},
      {"measurement": "Percent Reduction in Lesion Score", "setting": "[9]; [21]", "value": 100, "unit": "%"},
      {"measurement": "Percent Mortality", "setting": "[9]; second group, 0.01 percent in feed, 20 chickens", "value": 0, "unit": "%"},
      {"measurement": "Average Lesion Score", "setting": "[9]; second group, 0.01 percent in feed, infected controls 3.85", "value": 0},
      {"measurement": "Percent Weight Gain", "setting": "[9]; [21]", "value": 96, "unit": "%"},
      {"measurement": "Percent Reduction in Lesion Score", "setting": "[9]; [22]", "value": 100, "unit": "%"},
      {"measurement": "Percent Mortality", "setting": "[9]; second group, 0.02 percent in feed, 20 chickens", "value": 0, "unit": "%"},
      {"measurement": "Average Lesion Score", "setting": "[9]; second group, 0.02 percent in feed, infected controls 3.85", "value": 0},
      {"measurement": "Percent Weight Gain", "setting": "[9]; [22]", "value": 84, "unit": "%"},
      {"measurement": "antiviral activity", "setting": "[10]", "value": "active"},
      {"measurement": "Relative G+ Activity", "setting": "[11]", "value": 1},
      {"measurement": "solubility in organic solvents", "setting": "[12]; organic solvents such as methanol, ethanol, DMF, DMSO, ethyl acetate, chloroform, acetone, benzene", "value": "soluble"},
      {"measurement": "solubility in water", "setting": "[12]; water", "value": "insoluble in water"},
      {"measurement": "antiviral activity", "setting": "[13]", "value": "active"},
      {"measurement": "antiviral activity", "setting": "[14]", "value": "active"},
      {"measurement": "Percent Increase Over Control in ruminal propionic acid concentration", "setting": "[15]; 25 mg/day", "value": 17.4, "unit": "%"},
      {"measurement": "Percent Increase Over Control in ruminal propionic acid concentration", "setting": "[15]; 100 mg/day", "value": 54.0, "unit": "%"}
    ]}
  ]
}
